The text below walks through data of patent US8575310B2, “Bioactive pentapeptides from rice bran and use thereof” (Board of Trustees of the University of Arkansas, priority 2009, dated 2013).

No end group written: not given here.

Common to all, as to format: cell-based, human
One data set deals with Caco-2 cells. Nature of the data set: Trypan blue dye exclusion assay, viability of Caco-2 cells. The following applies: 200 μM concentration. Here is the method:
Human Cancer Cell Cultures. Human colon epithelial cancer cell line Caco-2, liver epithelial cancer cell line HepG2 and breast epithelial cancer cell line HTB-26 were cultured separately at 37° C. in Dulbecco's Modified Eagles Medium (DMEM) in the presence of 10% fetal bovine serum, supplemented with 1 mM L-glutamine, sodium pyruvate, 1 mM sodium bicarbonate, and 50 μg/mL gentamycin. Human lung epithelial cancer cell line NCI-H1299 was cultured in RPMI-1640 medium supplemented with 10% fetal bovine serum. After cell growth reached 70%, cell viability was monitored by employing the trypan blue dye exclusion assay after peptide treatments. Briefly, the monolayer was allowed to grow for 2-3 days at 37° C. on 24-well flat-bottom plates. One hundred microliters (100 μL) of rice bran peptide fractions at 1 mg/mL protein content was added to the cultures. For positive control genistein at 200 and 400 μM in saline and for negative control saline alone was used. After 24-48 h of treatments, the medium was removed, and the cells were briefly dissociated with 0.1% trypsin and 0.53 mM ethylenediaminetetraacetic acid (EDTA) solution. Following this, 0.5% trypan blue dye mixed in growth medium was added to each well. Samples were then aspirated from each well and loaded onto chambers in a hemocytometer cell, and cell counts were taken. […]

Data set [1] deals with amyloid-induced neuroblastoma cells (IMR-32). Nature of the data set: Protection against amyloid beta (1-42) toxicity in neuroblastoma cells, MTS assay. The conditions noted are these: compared to amyloid-induced cells not treated with peptides. As for the experimental part:
Evaluation of Anti-Alzheimer's Disease Activity: Human neuroblastoma cells (IMR-32-ATCC Number CCL-127) was used as model system to evaluate the protective role of rice bran peptide fractions against amyloid beta (1-42) (Cat. No. PP69, EMD Chemicals, Inc., San Diego, Calif.) dependent toxicity. Human neuroblastoma cells were grown in the presence of beta amyloid peptide with and without bran peptide fractions at different levels. Cell survival to the amyloid-induced neuroblastoma cells upon bran peptide treatments was examined by the MTS [(3-(4,5-dimethylthiazole-2-yl)-5-(3-carboxymethoxyphenyl)-2-(4-sulfophenyl)-2H-tetrazolium, inner salt] assay, and compared to the cytotoxicity observed with amyloid-induced neuroblastoma cells.
Neuroblastoma cells were treated with amyloid peptide followed by treatment with rice bran peptide fractions. Cytotoxicity to the amyloid-induced neuroblastoma cells was examined by the MTS assay.
In general terms: Tetrazolium assays rely on reduction of a dye to a coloured formazan, in cell work by metabolically active cells.

The test system of a further data set is colon cancer cells. The conditions noted are these: pH 7. Here is the method:
An RSM design with a 3-factorial model was designed to use combinations of pH, RH (relative humidity), temperature and degree of glycosylation to evaluate enhanced anti-cancer activity of a modified (glycosylated) peptide. Peptide-glucose mixture samples were prepared at the following conditions/combinations: RH 55, 65, & 75 at pHs 6, 7 and 8 maintained at 40, 50 and 60° C. temperatures and tested for growth inhibition activity on colon cancer cells. The degree of glycosylation increased with increasing time at varying RH, and achieved a maximum of ˜20% degree of glycosylation.
Optimization for Degree of Glycosylation: The bioactive pentapeptide (0.02 g) (SEQ ID NO: 1) and D-glucose (0.002 g) were dissolved in water to give a 10% (w/v) protein solution. The solution pH was adjusted to varying pHs based on RSM design (6, 7, 8) and stirred for 10 min, and freeze-dried. The freeze-dried mixture was placed on an aluminum plate, and incubated at 50° C. at varying relative humidity ([…], 65%, 75%) based on the RSM design illustrated below in Table 3.

Take `O=c1c(-c2ccc(O)cc2)coc2cc(O)cc(O)c12` [Genistein]: in the data set on Caco-2 cells, the “viable cells on Caco-2 cell line” value was determined as 20000 viable cells/mL.

Take “EQRPR [bioactive pentapeptide, Glu-Gln-Arg-Pro-Arg]”: the “reduction in cytotoxicity of amyloid-induced neuroblastoma cells” value in data set [1] is given as about 45%. In the data set on colon cancer cells, the “cancer cell activity inhibition” value is recorded as about 80%.
